# Results taken from patent US10051857B2, “Formulation component” (SYNGENTA LIMITED, priority 2011, dated 2018).
# What was measured:
# Assay type in all cases: in vivo
# [1] = tested on: four weed species (ABUTH, CHEAL, DIGSA, SETVI); test: Glasshouse adjuvant test with nicosulfuron (Example 7), mean across species; details: nicosulfuron 30 or 60 g/ha, adjuvant 0.2% v/v or none
# Method: (§1) Compound 1 was tested in a glasshouse against four weed species using the herbicide nicosulfuron. A 20% w/w stock emulsion of compound 1 was prepared additionally containing 2% w/w Gohsenol® GL03 and 2% w/w Pluronic® PE10500 as surfactants. Using this, an agrochemical composition was prepared containing 0.2% v/v of the adjuvant in a track sprayer and was applied at a volume of 200 liters per hectare. Nicosulfuron was applied at either 30 or 60 grams of pesticide per hectare on each of the weed species. The weed species and their growth stage at spraying were Abutilon theophrasti (ABUTH; growth stage 13), Chenopodium album (CHEAL; growth stage 14), Digitaria sanguinalis (DIGSA; growth stage 13), and Setaria viridis (SETVI; growth stage 13).
# (§2) Each spray test replicated three times. The efficacy of the herbicide was assessed visually and expressed as a percentage of the leaf area killed. Samples were assessed at time periods of 14 and 21 days following application. The results shown in Table 7 below are mean averages over the two rates of nicosulfuron, three replicates and the two assessment timings, and are compared to the efficacy of nicosulfuron in the absence of an adjuvant.
# [2] = tested on: four weed species (CHEAL, ABUTH, SETVI, XANST); test: Glasshouse adjuvant test with fomesafen (Example 5), mean across species; details: fomesafen 60 or 120 g/ha, adjuvant 0.2% v/v or none
# Method: (§3) Compound 1 (N, N-diethyl-3-methylbenzamide) was tested in a glasshouse against four weed species using the herbicide fomesafen. An agrochemical composition was prepared containing 0.2% v/v of the adjuvant in a track sprayer and was applied at a volume of 200 liters per hectare. Fomesafen was applied at either 60 or 120 grams of pesticide per hectare on each of the weed species. The weed species and their growth stage at spraying were Chenopodium album (CHEAL; growth stage 13/14), Abutilon theophrasti (ABUTH; growth stage 12), Setaria viridis (SETVI; growth stage 13), and Xanthium strumarium (XANST; growth stage 12).
# (§4) Each spray test was replicated three times. The efficacy of the herbicide was assessed visually and expressed as a percentage of the leaf area killed. Samples were assessed at time periods of 7, 14 and 21 days following application. The results shown in Table 5 below are mean averages over the two rates of fomesafen, three replicates and the three assessment timings, and are compared to the efficacy of fomesafen in the absence of adjuvant.
# [3] = tested on: Abutilon theophrasti (ABUTH); test: Glasshouse adjuvant test with nicosulfuron (Example 7); details: nicosulfuron 30 or 60 g/ha, adjuvant 0.2% v/v or none, 200 l/ha; growth stage 13; mean over two rates, three replicates, 14 and 21 days
# Method: as §1, §2
# [4] = tested on: Digitaria sanguinalis (DIGSA); test: as above; details: nicosulfuron 30 or 60 g/ha, adjuvant 0.2% v/v or none, 200 l/ha; growth stage 13; mean over two rates, three replicates, 14 and 21 days
# Method: as §1, §2
# Setaria viridis (SETVI) [5] = test: as above; details: nicosulfuron 30 or 60 g/ha, adjuvant 0.2% v/v or none, 200 l/ha; growth stage 13; mean over two rates, three replicates, 14 and 21 days
# Method: as §1, §2
# [6] = tested on: Chenopodium album (CHEAL); test: as above; details: nicosulfuron 30 or 60 g/ha, adjuvant 0.2% v/v or none, 200 l/ha; growth stage 14; mean over two rates, three replicates, 14 and 21 days
# Method: as §1, §2
# [7] = tested on: four weed species (AMATE, BRADE, DIGSA, POLCO); test: Glasshouse adjuvant test with mesotrione (Example 6), mean across species; details: mesotrione 45 or 90 g/ha, adjuvant 0.2% v/v or none
# [8] = tested on: four weed species (ALOMY, AVEFA, LOLPE, SETVI); test: Glasshouse adjuvant test with pinoxaden (Example 8), mean across species; details: pinoxaden 7.5 or 15 g/ha, adjuvant 0.2% v/v or none
# Method: (§5) The adjuvant shown in example 1 was tested in a glasshouse against four weed species in combination with the herbicide pinoxaden. A 20% w/w stock emulsion of compound 1 was prepared additionally containing 2% w/w Gohsenol® GL03 and 2% w/w Pluronic® PE10500 as surfactants. Using this, an agrochemical composition was prepared containing 0.2% v/v of the adjuvant in a track sprayer and was applied at a volume of 200 liters per hectare. Pinoxaden was applied at either 7.5 or 15 grams of pesticide per hectare on each of the weed species. The weed species and their growth stage at spraying were Alopecurus myosuroides (ALOMY; growth stage 13), Avena fatua (AVEFA; growth stage 12); Lolium perenne (LOLPE; growth stage 13), Setaria viridis (SETVI; growth stage 14).
# as §2, with “test was” for “test”, “8” for “7 below”, “pinoxaden,” for “nicosulfuron,”, “pinoxaden” for “nicosulfuron”, “of” for “of an”
# Setaria viridis (SETVI) [9] = test: Glasshouse adjuvant test with pinoxaden (Example 8); details: pinoxaden 7.5 or 15 g/ha, adjuvant 0.2% v/v or none, 200 l/ha; growth stage 14; mean over two rates, three replicates, 14 and 21 days
# Method: as §5
# as §2, with “test was” for “test”, “8” for “7 below”, “pinoxaden,” for “nicosulfuron,”, “pinoxaden” for “nicosulfuron”, “of” for “of an”
# Avena fatua (AVEFA) = test: as above; details: pinoxaden 7.5 or 15 g/ha, adjuvant 0.2% v/v or none, 200 l/ha; growth stage 12; mean over two rates, three replicates, 14 and 21 days
# Method: as §5
# as §2, with “test was” for “test”, “8” for “7 below”, “pinoxaden,” for “nicosulfuron,”, “pinoxaden” for “nicosulfuron”, “of” for “of an”
# Lolium perenne (LOLPE) = test: as above; details: pinoxaden 7.5 or 15 g/ha, adjuvant 0.2% v/v or none, 200 l/ha; growth stage 13; mean over two rates, three replicates, 14 and 21 days
# Method: as §5
# as §2, with “test was” for “test”, “8” for “7 below”, “pinoxaden,” for “nicosulfuron,”, “pinoxaden” for “nicosulfuron”, “of” for “of an”
# [10] = tested on: Alopecurus myosuroides (ALOMY); test: as above; details: pinoxaden 7.5 or 15 g/ha, adjuvant 0.2% v/v or none, 200 l/ha; growth stage 13; mean over two rates, three replicates, 14 and 21 days
# Method: as §5
# as §2, with “test was” for “test”, “8” for “7 below”, “pinoxaden,” for “nicosulfuron,”, “pinoxaden” for “nicosulfuron”, “of” for “of an”
# [11] = tested on: Abutilon theophrasti (ABUTH); test: Glasshouse adjuvant test with fomesafen (Example 5); details: fomesafen 60 or 120 g/ha, adjuvant 0.2% v/v or none, 200 l/ha; growth stage 12; mean over two rates, three replicates, 7, 14 and 21 days
# Method: as §3, §4
# [12] = tested on: Xanthium strumarium (XANST); test: as above; details: fomesafen 60 or 120 g/ha, adjuvant 0.2% v/v or none, 200 l/ha; growth stage 12; mean over two rates, three replicates, 7, 14 and 21 days
# Method: as §3, §4
# Setaria viridis (SETVI) [13] = test: as above; details: fomesafen 60 or 120 g/ha, adjuvant 0.2% v/v or none, 200 l/ha; growth stage 13; mean over two rates, three replicates, 7, 14 and 21 days
# Method: as §3, §4
# [14] = tested on: Chenopodium album (CHEAL); test: as above; details: fomesafen 60 or 120 g/ha, adjuvant 0.2% v/v or none, 200 l/ha; growth stage 13/14; mean over two rates, three replicates, 7, 14 and 21 days
# Method: as §3, §4
smiles,measurement,setting,value
"CCN(CC)C(=O)c1cccc(C)c1 [Compound 1, N, N-diethyl-3-methylbenzamide]","Mean percentage kill, Mean across species",[1],81.3%
same,"Mean percentage kill, Mean across species",[2],42.6%
same,Mean percentage kill ABUTH,[3],72.9%
same,Mean percentage kill DIGSA,[4],89.4%
same,Mean percentage kill SETVI,Setaria viridis (SETVI) [5],93.4%
same,Mean percentage kill CHEAL,[6],63.8%
same,"Mean percentage kill, Mean across species",[7],54.1%
same,"Mean percentage kill, Mean across species",[8],22.1%
same,Mean percentage kill SETVI,Setaria viridis (SETVI) [9],15.8%
same,Mean percentage kill AVEFA,Avena fatua (AVEFA),29.2%
same,Mean percentage kill LOLPE,Lolium perenne (LOLPE),20.8%
same,Mean percentage kill ALOMY,[10],22.5%
same,Mean percentage kill ABUTH,[11],38.9%
same,Mean percentage kill XANST,[12],35.6%
same,Mean percentage kill SETVI,Setaria viridis (SETVI) [13],15.8%
same,Mean percentage kill CHEAL,[14],80.3%
